Results published in patent US4108991A, “N-aminosulfenyl derivatives of aldicarb” (priority 1976, dated 1978).

Tests used:
Southern armyworm [1] = experiment: Initial contact activity, leaf dip, southern armyworm; type: in vivo, Spodoptera eridania [Cram.]; conditions: Spodoptera eridania, foliar, 48 h, initial, AW, 48 hours, read-out: Percent Kill
Procedure: (§1) Initial Contact Activity: One half gram of test compound was dissolved in 40 ml of acetone and this solution was dispersed in 360 ml of water containing one drop of isooctylphenyl polyethoxyethanol. Aliquots of this solution, which corresponds to 1250 ppm of active ingredient, were diluted with an appropriate amount of water to provide solutions containing various concentrations of active ingredient. Test organisms and techniques were as follows: The activity against the Mexican bean beetle (Epilachna varivestis Muls.) and the southern armyworm (Spodoptera eridania [Cram.]) was evaluated by dipping the leaves of pinto bean plants into the test solution and infesting the leaves with the appropriate immature-form insects when the foiliage had dried; the activity against the pea aphid (Acyrthosiphon pisum [Harris]) was evaluated on broad bean plants whose leaves were dipped before infestation with adult aphids; the activity against two-sotted spider mites (Tetranychus urticae Koch) was evaluated on pinto bean plants whose leaves were dipped after infestation with adult mites; the activity against the milkweed bug (Oncopeltus fasciatus [Dallas]), and the plum curculio (Conotrachelus nenuphar [Herbst]) was evaluated by spraying the test solutions into glass dishes or jars containing the adult insects; the activity against the confused flour beetle (Tribolium confusum duVal) was evaluated by introducing the insects into glass dishes which had been previously sprayed with test solution and allowed to dry. All organisms in the test were maintained in a holding room at 80° F and 50% relative humidity for an exposure period of 48 hours. At the end of this time, the dead and living insects or mites were counted, and the percent kill was calculated.

Granary Weevil = experiment: Initial contact activity, granary weevil; type: in vivo; conditions: Sitophilus granarius, 48 h, initial, GW, 48 hours, read-out: Percent Kill
rats = experiment: Toxicity to rats, acute oral median lethal dose (LD50), Method A; type: in vivo, young female albino rats, derived from Sprague-Dawley stock; conditions: rat; for Enhancement LD50 Derivative/LD50 Aldicarb: ratio to aldicarb
Procedure: (§2) Method A: Young female albino rats, derived from Sprague-Dawley stock and weighing between 175 and 200 g, were used. An initial screening was conducted to determine the general level of toxicity of the test compounds and to establish the dosing range to be used with each compound. The test materials were suspended in corn oil and administered directly into the stomachs of the rats, using a hypodermic syringe equipped with a ball-tipped intubating needle. A range of dosing levels was employed utilizing two rats at each level. […] This method was used to determine the toxicity to rats of the compounds of Examples I, II, and III and aldicarb.

[2] = as above; type: in vivo, young female albino rats, derived from Sprague-Dawley stock; conditions: in vivo, rat, corn oil, 14 days observation
Procedure: as §2

Milkweed bug [3] = experiment: Residual (7-day) contact activity, milkweed bug; type: in vivo, Oncopeltus fasciatus [Dallas]; conditions: Oncopeltus fasciatus, 168 h, residual 7-day, MWB, read-out: Percent Kill
Procedure: as §1
(§3) Residual Contact Activity: The residual contact activity of the compounds was determined on the same organisms using the techniques described above, except that in each case the treated surface was allowed to dry and was exposed to normal light and air for seven days before introduction of the mites or insects.

Plum curculio [4] = experiment: Residual (7-day) contact activity, plum curculio; type: in vivo, Conotrachelus nenuphar [Herbst]; conditions: Conotrachelus nenuphar, 168 h, residual 7-day, PC, read-out: Percent Kill
Procedure: as §1, §3

Two-spotted spider mite [5] = experiment: Systemic activity, soil-watering, two-spotted spider mite; type: in vivo, Tetranychus urticae Koch; conditions: Tetranychus urticae, 48 h, systemic, SM, read-out: Percent Kill
Procedure: as §1
(§4) Systemic Activity: Systemic activity was measured using a soil-watering technique. Test organisms were Mexican bean beetle, southern armyworm, pea aphid, and mites on plants as described above in this Example. With appropriate precautions to avoid contact of the solution with the test plant surfaces, 25 ml of a test solution, prepared as above to contain the desired amount of active ingredient, were poured evenly over the surface of the soil in which the plant was growing. The treated plants were maintained under normal growing conditions for three days to permit translocation of the toxicant, after which the leaves were infested. Two days after infestation, counts of living and dead insects were made.

Pea aphid [6] = experiment: Residual (7-day) contact activity, pea aphid; type: in vivo, Acyrthosiphon pisum [Harris]; conditions: Acyrthosiphon pisum, 168 h, residual 7-day, PA, read-out: Percent Kill
Procedure: as §1, §3

Mexican bean beetle = experiment: Systemic activity, soil-watering, Mexican bean beetle; type: in vivo, Epilachna varivestis Muls.; conditions: Epilachna varivestis, 48 h, systemic, BB, read-out: Percent Kill
Procedure: as §1, §4

Milkweed bug [7] = experiment: Initial contact activity, spray, milkweed bug; type: in vivo, Oncopeltus fasciatus [Dallas]; conditions: Oncopeltus fasciatus, 48 h, initial, MWB, 48 hours, read-out: Percent Kill
Procedure: as §1

Southern armyworm [8] = experiment: Residual (7-day) contact activity, southern armyworm; type: in vivo, Spodoptera eridania [Cram.]; conditions: Spodoptera eridania, 168 h, residual 7-day, AW, read-out: Percent Kill
Procedure: as §1, §3

Confused flour beetle = experiment: Residual (7-day) contact activity, confused flour beetle; type: in vivo, Tribolium confusum duVal; conditions: Tribolium confusum, 168 h, residual 7-day, FB, read-out: Percent Kill
Procedure: as §1, §3

Two-spotted spider mite [9] = experiment: Initial contact activity, leaf dip, two-spotted spider mite; type: in vivo, Tetranychus urticae Koch; conditions: Tetranychus urticae, foliar, 48 h, initial, SM, 48 hours, read-out: Percent Kill
Procedure: as §1

Pea aphid [10] = experiment: Initial contact activity, leaf dip, pea aphid; type: in vivo, Acyrthosiphon pisum [Harris]; conditions: Acyrthosiphon pisum, foliar, 48 h, initial, PA, 48 hours, read-out: Percent Kill
Procedure: as §1

Plum curculio [11] = experiment: Initial contact activity, spray, plum curculio; type: in vivo, Conotrachelus nenuphar [Herbst]; conditions: Conotrachelus nenuphar, initial, PC, 48 hours, read-out: Percent Kill
Procedure: as §1

Compound: CCCCN(CCCC)SN(C)C(=O)ON=CC(C)(C)SC [Example III, 2-methyl-2-(methylthio)propanal O-[(dibutylaminosulfenyl)(methyl)carbamoyl]oxime]
- mortality at 156 ppm (Southern armyworm [1]): 0%
- mortality at 312 ppm (Southern armyworm [1]): 0%
- mortality at 625 ppm (Southern armyworm [1]): 0%
- mortality at 1250 ppm (Southern armyworm [1]): 20%
- mortality at 156 ppm (Granary Weevil): 100%
- mortality at 312 ppm (Granary Weevil): 100%
- mortality at 1250 ppm (Granary Weevil): 100%
- LD50 relative to that of aldicarb (rats): 25 times
- Enhancement LD50 Derivative/LD50 Aldicarb (rats): 25
- LD50 at 336 h [2]: 12.5 mg/kg
- mortality at 156 ppm (Milkweed bug [3]): 20%
- mortality at 312 ppm (Milkweed bug [3]): 70%
- mortality at 1250 ppm (Milkweed bug [3]): 100%
- mortality at 156 ppm (Plum curculio [4]): 5%
- mortality at 312 ppm (Plum curculio [4]): 9.5%
- mortality at 1250 ppm (Plum curculio [4]): 5%
- mortality at 2.5 ppm (Two-spotted spider mite [5]): 0.9%
- mortality at 5 ppm (Two-spotted spider mite [5]): 0%
- mortality at 10 ppm (Two-spotted spider mite [5]): 0.7%
- mortality at 156 ppm (Pea aphid [6]): 0%
- mortality at 312 ppm (Pea aphid [6]): 0%
- mortality at 1250 ppm (Pea aphid [6]): 0%
- mortality at 39 ppm (Mexican bean beetle): 20%
- mortality at 156 ppm (Mexican bean beetle): 100%
- mortality at 10 ppm (Milkweed bug [7]): 5%
- mortality at 39 ppm (Milkweed bug [7]): 16%
- mortality at 156 ppm (Milkweed bug [7]): 100%
- mortality at 1250 ppm (Milkweed bug [7]): 100%
- mortality at 312 ppm (Southern armyworm [8]): 0%
- mortality at 1250 ppm (Southern armyworm [8]): 0%
- mortality at 312 ppm (Confused flour beetle): 0%
- mortality at 1250 ppm (Confused flour beetle): 0%
- mortality at 10 ppm (Two-spotted spider mite [9]): 98%
- mortality at 39 ppm (Two-spotted spider mite [9]): 89%
- mortality at 156 ppm (Two-spotted spider mite [9]): 100%
- mortality at 1250 ppm (Two-spotted spider mite [9]): 100%
- mortality at 10 ppm (Pea aphid [10]): 53%
- mortality at 39 ppm (Pea aphid [10]): 19%
- mortality at 156 ppm (Pea aphid [10]): 100%
- mortality at 1250 ppm (Pea aphid [10]): 100%
- mortality at 10 ppm (Plum curculio [11]): 0%
- mortality at 39 ppm (Plum curculio [11]): 5%
- mortality at 156 ppm (Plum curculio [11]): 0%
- mortality at 1250 ppm (Plum curculio [11]): 55%

Compound: CSC(C)(C)C=NOC(=O)N(C)SN(C)Cc1ccccc1 [Example I, 2-methyl-2-(methylthio)propanol O-[(N-benzyl-N-methylaminosulfenyl)(methyl)carbamoyl]oxime]
- mortality at 156 ppm (Southern armyworm [1]): 0%
- mortality at 312 ppm (Southern armyworm [1]): 24%
- mortality at 625 ppm (Southern armyworm [1]): 25%
- mortality at 1250 ppm (Southern armyworm [1]): 33%
- mortality at 156 ppm (Granary Weevil): 100%
- mortality at 312 ppm (Granary Weevil): 100%
- mortality at 1250 ppm (Granary Weevil): 100%
- LD50 relative to that of aldicarb (rats): 19 times
- Enhancement LD50 Derivative/LD50 Aldicarb (rats): 19
- LD50 at 336 h [2]: 9.4 mg/kg
- mortality at 156 ppm (Milkweed bug [3]): 90%
- mortality at 312 ppm (Milkweed bug [3]): 95%
- mortality at 1250 ppm (Milkweed bug [3]): 100%
- mortality at 156 ppm (Plum curculio [4]): 23%
- mortality at 312 ppm (Plum curculio [4]): 43%
- mortality at 1250 ppm (Plum curculio [4]): 20%
- mortality at 2.5 ppm (Two-spotted spider mite [5]): 0.9%
- mortality at 5 ppm (Two-spotted spider mite [5]): 2.3%
- mortality at 10 ppm (Two-spotted spider mite [5]): 4.3%
- mortality at 156 ppm (Pea aphid [6]): 0%
- mortality at 312 ppm (Pea aphid [6]): 6.3%
- mortality at 1250 ppm (Pea aphid [6]): 100%
- mortality at 39 ppm (Mexican bean beetle): 0%
- mortality at 156 ppm (Mexican bean beetle): 75%
- mortality at 10 ppm (Milkweed bug [7]): 5%
- mortality at 39 ppm (Milkweed bug [7]): 80%
- mortality at 156 ppm (Milkweed bug [7]): 100%
- mortality at 1250 ppm (Milkweed bug [7]): 100%
- mortality at 312 ppm (Southern armyworm [8]): 0%
- mortality at 1250 ppm (Southern armyworm [8]): 91%
- mortality at 312 ppm (Confused flour beetle): 0%
- mortality at 1250 ppm (Confused flour beetle): 2.6%
- mortality at 10 ppm (Two-spotted spider mite [9]): 96%
- mortality at 39 ppm (Two-spotted spider mite [9]): 98%
- mortality at 156 ppm (Two-spotted spider mite [9]): 100%
- mortality at 1250 ppm (Two-spotted spider mite [9]): 100%
- mortality at 10 ppm (Pea aphid [10]): 20%
- mortality at 39 ppm (Pea aphid [10]): 62%
- mortality at 156 ppm (Pea aphid [10]): 100%
- mortality at 1250 ppm (Pea aphid [10]): 100%
- mortality at 10 ppm (Plum curculio [11]): 10%
- mortality at 39 ppm (Plum curculio [11]): 0%
- mortality at 156 ppm (Plum curculio [11]): 0%
- mortality at 1250 ppm (Plum curculio [11]): 45%
